Legend:
Assay type in all cases: in vivo, human
[1] = tested on: viral infections; assay: Treatment of Patient with ME/CFS II (case report); conditions: person with ME/CFS and long history of viral infections, 300 mg/day NBMI from 2010; self-reported
Excerpt: The person was often sick and had, therefore, a poor quality of life.

[2] = tested on: viral infections; assay: Treatment of Patient with ME/CFS I (case report)
Experimental: A person residing in Sweden and diagnosed with myalgic encephalomyelitis/chronic fatigue syndrome (ME/CFS), reported that they started to use NBMI extensively in 2010 starting with 600 mg/day for 1.5 months, then 400 mg/day for 1.5 months and then 300 mg/day for three months.
Due to ME/CFS, the person was often inflicted with viral infections.

[3] = tested on: common cold-like and/or flu-like illnesses; assay: Treatment of Patient I (case report, daily NBMI); conditions: man, up to 300 mg/day NBMI almost daily for approximately 14 years; self-reported
Experimental: A person residing in the USA reported taking doses of up to 300 mg/day NBMI almost daily since 2006.
Before taking NBMI, the person regularly became sick with such illnesses due to their work as a university professor and being an avid outdoorsman.

[4] = tested on: common cold-like and/or flu-like symptoms; assay: Treatment of Patient II (case report, daily NBMI); conditions: self-reported
Excerpt: A person residing in the USA, the spouse of Patient I, reported that they were often inflicted with common cold-like and/or flu-like symptoms due to their profession as a registered nurse.

[5] = person with ME/CFS, 2010, 600 then 400 then 300 mg/day, self-reported

O=C(NCCS)c1cccc(C(=O)NCCS)c1 [NBMI, N,N-bis-2-mercaptoethyl isophthalamide]
occurrence of viral infections [1]: no longer suffered from viral infections
frequency and severity of infections on restarting NBMI ([2]; person with ME/CFS, 300 mg/day again from late 2011, self-reported): got fewer and less severe
frequency of viral infections ([2]; person with ME/CFS, 2010, 600 mg/day for 1.5 months, then 400 mg/day for 1.5 months, then 300 mg/day for three months, self-reported): viral infections became fewer
intensity of viral infections (pain, headache, fatigue, time bedridden) [2, 5]: intensity was less severe
recovery time from viral infections [2, 5]: recovery time was quicker
frequency and severity of viral infections after halting the treatment ([2]; person with ME/CFS, after halting NBMI in summer 2010, self-reported): viral infections became more frequent and more severe
severity and duration of virus infection when NBMI is taken during infection ([2]; person with ME/CFS, occasional NBMI when inflicted with a virus infection, compared with not taking NBMI, patient's impression): less severe and shorter in duration
occurrence of common cold-like and/or flu-like illnesses [3]: has not become unwell with common cold-like and/or flu-like illnesses
common cold-like and/or flu-like symptoms, recent years ([4]; person, NBMI daily, over the past 5 years): has not experienced any such symptoms
flu-like symptoms after starting NBMI ([4]; registered nurse, NBMI daily since 2010): great decrease in having flu-like symptoms
